Source: patent US12616196B2, “Long protection mosquito repellent ointment” (MAIA AFRICA SAS, priority 2019, dated 2026)

What was measured:
[1] = test system: An. gambiae s.s. (Kisumu); test: Semi-field system (SFS) recapture of released mosquitoes on treated lower limbs; assay type: in vivo
Description: (§1) The study was conducted under ambient condition in the semi-field system (SFS) located in Bagamoyo district at the Ifakara Health Institute at Bagamoyo branch in Tanzania. Bagamoyo is located on the coast region of the Indian Ocean between latitudes 6° and 8′ South and between longitudes 30° and 37′ East. The district experience annual rainfall ranging between 800 mm and 1000 mm, temperature ranging between 22° C. and 33° C., and mean relative humidity of 73%.
(§2) Three laboratory-reared mosquito strains, aged 6 days old, sugar starved for 8 hours, nulliparous females, reactive to human odor on the day of the experiment, have been used for this experiment. Mosquito strains used were: (i) the pyrethroid insecticide resistant (20% mortality) An. arabiensis (Kingani, (ii) fully pyrethroid susceptible An. gambiae s.s. (Kisumu) and (iii) Ae. aegypti (Bagamoyo). The vector control product-testing unit of IHI supplied all mosquitoes used in the experiments.
(§3) The mosquitoes were reared in the insectary following MR4 guideline (MR4. Methods in Anopheles Research 2016; 2015 Edition). Adults were kept inside cages measuring 30 cm×30 cm×30 cm. Only hyperactive mosquitoes were selected at least 8 hours before the experiment. […] About 30 minutes before the experiment, mosquitoes were transferred to the SFS to acclimatize the environmental conditions. The SFS offered the following advantages; 1) volunteers were exposed to laboratory-reared mosquitoes only, 2) experiments were run using a known number of mosquitoes throughout the experiments; 3) mosquitoes used were of known age (6 days), physiological status and avidity. These features improve data quality and less results variability between days and volunteers.
(§4) Three treatments have been tested: (i) Ethanol 100% as a negative control, (ii) 20% DEET diluted in ethanol 100% as a positive control, and (iii) ointment No. 9.
(§5) Volunteers wore shorts, closed shoes and bug jacket to ensure mosquitoes had access to the lower limbs only. Volunteers applied 20% DEET and ointment No. 9 at an average rate of 2 mg/cm^2 of the repellent to the lower limbs using latex glove to minimize absorption onto volunteer's hand. After application, an empty plastic cups were weighed to determine the quantity of repellent left in the cup. The composition of the ointment was not disclosed to the volunteers.
(§6) The study was divided into two experiments: one for Anopheles mosquitoes conducted in the late evening and the other for Ae. aegypti mosquitoes conducted early in the morning. The experiment for Anopheles started at 17:55 and that for Ae. aegypti at 06:00 hours.
(§7) The experiments were conducted for a total of 18 days. During the first 9 days 100 mosquitoes (50 per species) were released in each compartment starting at 18:00 hours for Anopheles species and at 06:00 hours for Ae. aegypti. After the release, the number of mosquitoes recaptured by volunteers who applied 20% DEET and ointment No. 9 was insignificant up to 6 hours of recapture period. This warranted to extend the recapture period to 12 hours 9 last days.
(§8) During the last 9 days, we used same volunteers, compartments and rotation schedule. Mosquitoes released were 100 per species and volunteers recaptured mosquitoes landing on their lower limbs using a mouth aspirator up to 12 hours of recapture period. Volunteers recorded a time the first mosquito of each species landed on the limb and the recaptured mosquito was placed in a paper cup labelled with volunteers unique identification code, time of collection, position and treatment code. The volunteer kept collecting subsequent mosquitoes up to 12 hours with cups changed after every hour.
(§9) At the end of recapture time, mosquitoes were killed by putting in the refrigerator for about 30 minutes and then sorted to species level. If the mosquito recaptured in the control was below 50 percent, the experiment was considered invalid, data discarded and the experiment repeated. […]

[2] = test system: An. arabiensis (Kingani); test: as above; assay type: in vivo
Description: as §1, §2, §3, §4, §5, §6, §7, §8, §9

[3] = test system: Ae. aegypti (Bagamoyo); test: as above; assay type: in vivo, Aedes aegypti
Description: as §1, §2
The mosquitoes were reared in the insectary following MR4 guideline (MR4. Methods in Anopheles Research 2016; 2015 Edition). Adults were kept inside cages measuring 30 cm×30 cm×30 cm. Only hyperactive mosquitoes were selected at least 8 hours before the experiment. […] About 30 minutes before the experiment, mosquitoes were transferred to the SFS to acclimatize the environmental conditions. […]
(§10) Volunteers wore shorts, closed shoes and bug jacket to ensure mosquitoes had access to the lower limbs only. […] After application, an empty plastic cups were weighed to determine the quantity of repellent left in the cup. […]
(§11) During the last 9 days, we used same volunteers, compartments and rotation schedule. […] Volunteers recorded a time the first mosquito of each species landed on the limb and the recaptured mosquito was placed in a paper cup labelled with volunteers unique identification code, time of collection, position and treatment code. […]

[4] = test system: Culicine; test: Field human landing catches, Goden village; assay type: in vivo, Culicine (Aedes); settings: total catch during the tests, collection 6 pm to 6 am
Description: (§12) The protection time provided by ointment No. 9 of Example 1 has been measured according to the “Guidelines for efficacy testing of mosquito repellents for human skin” published by the World Health Organization in 2009 (noted hereafter “WHO Guidelines, 2009”). These guidelines describe how human landing catches must be performed on volunteers. The effectiveness of ointment No. 9 was evaluated and compared to a 20% ethanol solution of DEET (N, N-Diethyl-3-methylbenzamide), being the positive control, and an ethanol solution being the negative control.
(§13) Briefly, the study was carried out in real conditions at the Goden village (12°25′N, 1°20′W), a rural village in the locality of Gampela, 25 km north-east of Ouagadougou, the capital city of Burkina Faso. Goden is in the Sudanian Savanna with approximately 800 inhabitants mainly belonging to the Mossi ethnic group, mostly devoted to agriculture and rearing few animals such as dogs, pigs and others. Goden is known for its high density of malaria vectors due to its proximity to the Massiri river. This study was carried out during the high malaria transmission period, when the mosquito density was the highest A preliminary assessment of the collection site was carried out by undertaking captures on human volunteers before the tests themselves. […]

[5] = test system: Other Anopheles; test: Field human landing catches, Goden village; assay type: in vivo; settings: total catch during the tests, collection 6 pm to 6 am
Description: as §12, §13

[6] = test system: Anopheles funestus; test: Field human landing catches, Goden village; assay type: in vivo; settings: total catch during the tests, collection 6 pm to 6 am
Description: as §12, §13

[7] = test system: An. arabiensis (Kingani), An. gambiae s.s. (Kisumu), Ae. aegypti (Bagamoyo); test: Semi-field system (SFS), all species tested; assay type: in vivo, Anopheles and Aedes mosquitoes
Description: as §1
Three laboratory-reared mosquito strains, aged 6 days old, sugar starved for 8 hours, nulliparous females, reactive to human odor on the day of the experiment, have been used for this experiment. […]
as §10, §11

[8] = test system: mosquitoes; test: Field human landing catches, hourly mosquito biting rate; assay type: in vivo; settings: with 95% CI
Description: as §12, §13

[9] = test system: Anopheles gambiae s.l.; test: Field human landing catches on treated lower legs, Goden village (WHO Guidelines 2009); assay type: in vivo; settings: for Median CPT (complete protection time): Kaplan-Meier
Description: as §12
Briefly, the study was carried out in real conditions at the Goden village (12°25′N, 1°20′W), a rural village in the locality of Gampela, 25 km north-east of Ouagadougou, the capital city of Burkina Faso. Goden is in the Sudanian Savanna with approximately 800 inhabitants mainly belonging to the Mossi ethnic group, mostly devoted to agriculture and rearing few animals such as dogs, pigs and others. Goden is known for its high density of malaria vectors due to its proximity to the Massiri river. This study was carried out during the high malaria transmission period, when the mosquito density was the highest A preliminary assessment of the collection site was carried out by undertaking captures on human volunteers before the tests themselves.
A total of twenty volunteers have been recruited from the Goden village and have been trained for the nocturnal collection of mosquitoes on human bait using mouth aspirator and flash torch known as Human Landing Catches (HCL). The age of the volunteers ranged from 18 to 50 years old. After receiving explanation of the aims, benefits and risks of the study, they signed a written informed consent. The composition of the ointment was not disclosed to the volunteers. Volunteers were instructed not to use any fragranced soap or perfume, tobacco or alcohol 12 hours before the start and throughout the experiments. Before applying treatments, the lower leg of volunteers was washed with neutral soap, rinsed with 70% of ethanol solution and naturally dried. Once their legs treated volunteers were also asked to avoid rubbing, touching or wetting the repellent-treated area.
Three treatments have been carried out in the study: • (i) one negative control (ethanol 100%), • (ii) two treatments of 20% DEET diluted in ethanol 100% of technical quality used as a positive control, since this repellent is considered as the reference, • (iii) two treatments of ointment No. 9.
The products were applied to the bare leg of the volunteers and the areas of application were exposed to mosquito bites in the field. Volunteers applied to their exposed leg: Ointment No. 9 at a dosage of 2 mg/cm^2, and 20% DEET in ethanol for the positive control at a dosage of 1 ml per 600 cm^2.
To establish the amount of repellent required for application in the experiments, the surface area of the leg of each volunteer were determined by first measuring the circumferences expressed in centimeter (cm) just below the knee, and above the ankle, multiplied by the length of the lower leg, measured from the knee to the ankle. The surface area (in cm^2) of skin was calculated according to formula (1) below: Area=½(Ck+Ca)Dka, (1) wherein Ck is the circumference below the knee in cm, Ca is the circumference above the ankle in centimeter, and Dka is the distance in centimeter between Ca and Ck. The amount needed for each volunteer was then determined depending on their leg length. In addition, the quantity of product left in bottles was weighed using a precision weighing balance (KERN & SOHN GmbH) to determine the amount applied by each volunteer. Overall, the average amount applied was 2.4±0.2 g per 1189±79.2 cm^2 and per volunteer's lower leg, leading to 2 mg/cm^2 of Ointment No. 9 and […] of a 20% DEET solution.
Volunteers were divided into five groups of four volunteers. All the members of a group received the same treatment at the same time. […]

`CCN(CC)C(=O)c1cccc(C)c1` [20% DEET, N,N-diethyl-3-méthylbenzamide] was tested, and the “Percentage protection (protective efficacy)” value (from here on “Percentage protection”) ([1]; 12-hour recapture time) was 96.8%, the Percentage recapture ([1]; 12-hour recapture time) was 2.5% and the “Average CRT (average complete protection time, CPT)” value (from here on “Average CRT”) ([1]; up to 12 hours recapture) was 575 min. The “Percentage protection” value ([2]; 12-hour recapture time) was 97.2%, the Percentage recapture ([2]; 12-hour recapture time) was 2.7% and the “Average CRT” value ([2]; up to 12 hours recapture) was 580.9 min. For the same compound, the “Percentage protection” value ([3]; 12-hour recapture time) was 93.1%, the Percentage recapture ([3]; 12-hour recapture time) was 4.8% and the “Average CRT” value ([3]; up to 12 hours recapture) was 436.9 min. For the same compound, the “mosquitoes caught by treatment” value [4] was 7, the “mosquitoes caught by treatment” value [5] was 1 and the “mosquitoes caught by treatment” value [6] was 1. For the same compound, the protective efficacy ([7]; 6-hour recapture time, all species tested) was 100%, the “number of mosquitoes recaptured” value ([7]; up to 6 hours of recapture period) was “insignificant” and the “average mosquito bites received per person per hour” value [8] was 1.01 (95%: 0.76-1.33) per person per hour. For the same compound, the percentage of repellency ([9]; after 3 h (10 hours after application)) was “under 80%”, the “Median CPT (complete protection time)” value ([9]; indoor and outdoor together) was 480 min and the “Median CPT (complete protection time)” value ([9]; indoor) was 480 min. For the same compound, the “Median CPT (complete protection time)” value ([9]; outdoor) was 480 min, the “mosquitoes caught by treatment” value ([9]; total catch during the tests, collection 6 pm to 6 am) was 686 and the “increase of protection time compared to Ethanol” value ([9]; versus negative control Ethanol) was “four-fold”.
